Experimental data from patent US20140242673A1, “CHEMICALLY DEFINED CULTURE MEDIUM FOR FERMENTATION TO PRODUCE SUCCINIC ACID AND APPLICATION THEREOF” (NANJING UNIVERSITY OF TECHNOLOGY, priority 2011, published 2014).

Assays:
Format in all cases: cell-based
[1] = system: Mannheimia succiniciproducens MBEL55E; assay: Production of succinic acid by fermentation with biotin replaced by 5-ALA
Procedure: In this preferred embodiment, biotin (10˜20 mg/L) in culture medium is replaced by 0.1˜1 mg/L of 5-ALA, for fermentation experiment.
The microorganism adopts large Mannheimia succiniciproducens MBEL55E (strain from patents of publication No. EP2096177 and No. EP2199304).
Cultivation in fermenter: transfer activated seed liquid and sterilized glucose into fermenter; inoculum size shall be 7% (volume ratio); stirring speed shall be 200 rpm; allow fermentation at 37° C.; amount of CO2 connected shall be 0.25 vvm.
Conventional compositions of fermentation culture medium (g/L): 10 of mixed carbohydrate obtained from pre-treated stalk (measured total carbohydrate concentration), 3 of disodium fumarate, 4 of KH2PO4, 0.4 of MgCl2.6H2O, 0.4 of CaCl2, and 2 of NaCl; sterilize at pH value of 7.0 and 121° C. for 15 min; ammonia is adopted as neutralizing agent.

[2] = system: Actinobacillus succinogenes NJ113 (CGMCC 1716); assay: Fermentation in defined medium with one growth factor missing (serum bottle, 30 h); conditions: for bacterial growth / glucose remaining / succinic acid production: culture medium lacks the named growth factor; for OD660 / Residual glucose / Succinic acid: medium lacking the named growth factor, 30 h, 37° C., 200 rpm
From the text: To investigate the effect of critical factors on succinic acid production described by this invention can use any microorganism germ seed used for production of succinic acid using anaerobic fermentation in existing technology. This preferred embodiment uses NJ113 (Actinobacillus succinogenes NJ113), which has been patented (authorized publication No.: CN100537744C).
First, significance and effect of various amino acids, vitamins, and metallic microelements on bacterial growth and metabolism has been investigated on defined medium. Particular operation and cultivation conditions are as follows:
(1) Preparation of amino acid mixed liquids: Remove each one type of amino acid from the 18 types of amino acid being tested, to prepare a mixed liquid of remaining 17 types of amino acid of suitable concentration (suitable concentration refers to the concentration at which the substance of lowest solubility is completely dissolved), as well as a mixed liquid containing all 18 types of amino acid. Quantity of each such liquid is 100 mL. After filtration sterilization by 0.22 μm sterile filtering head, keep these liquids for later use. Refer to Attached Table 1 for contents of various amino acids in the culture medium.
(2) Preparation of vitamin mixed liquids: Using the method in […], remove each one type of vitamin from the 10 types of vitamin being tested, to prepare a mixed liquid of remaining 9 types of vitamin of suitable concentration (suitable concentration refers to the concentration at which the substance of lowest solubility is completely dissolved), as well as a mixed liquid containing all 10 types of vitamin. Quantity of each such liquid is 100 mL. After filtration sterilization by 0.22 μm sterile filtering head, keep these liquids for later use. Refer to Attached Table 1 for contents of various vitamins in the culture medium.
(3) Preparation of metallic microelement mixed liquids: Using the method in step (1), remove each one type of metal salt from the 12 types of metal salt being tested, to prepare a mixed liquid of remaining 11 types of metal salt of suitable concentration (suitable concentration refers to the concentration at which the substance of lowest solubility is completely dissolved), as well as a mixed liquid containing all 12 types of metal salt. Quantity of each such liquid is 100 mL. After sterilization at 121° C. for 15 min, keep these liquids for later use. Refer to Attached Table 1 for contents of various metal salts in the culture medium.
Conventional compositions of fermentation culture medium (g/L): 90 of glucose (separately sterilized), 1 of disodium fumarate, 2 of KH2PO4, 0.2 of MgCl2.6H2O, 0.2 of CaCl2, and 1 of NaCl; sterilized at pH of 7.0 and 121° C. for 15 min; sodium carbonate adopted as neutralizing agent.
In a 100 mL serum bottle, add […] of fermentation culture medium and 1 mL of Actinobacillus succinogenes NJ113 (CGMCC 1716) seed liquid that has been washed by sterilized water; sterilize at 121° C. for 15 min; and then add 4 mL of reserved mixed liquid not containing a type of amino acid, 0.5 mL of reserved mixed liquid containing all vitamins being tested, 1 mL of reserved mixed liquid containing all types of metal salt being tested, and […] of sterilized 600 g/L glucose, so that after inoculation, the total volume reaches 20 mL and glucose concentration is 30 g/L.
Use the same method to prepare fermentation culture medium that lacks a certain type of vitamin or metal salt.
Carry out fermentation of above culture media under the following conditions:
At mechanical shaker speed of 200 rpm and 37° C., allow fermentation for 30 h and then detect content of succinic acid in the fermentation liquid.

Escherichia coli = assay: Production of succinic acid by fermentation at different biotin concentrations
Procedure: This preferred embodiment reduces biotin consumption in the culture medium. Particular method of change of fermentation culture medium is described below.
Germ seed: Escherichia coli (strain from patent of publication No. CN102154339A)
Cultivation in fermenter: transfer activated seed liquid and sterilized glucose into fermenter; inoculum size shall be 5% (volume ratio); stirring speed shall be 200 rpm; allow fermentation at 37° C.; amount of CO2 connected shall be 0.25 vvm.
Conventional compositions of fermentation culture medium (g/L): 30 of glucose (separately sterilized), 2 of disodium fumarate, 3 of KH2PO4, 0.3 of MgCl2.6H2O, 0.23 of CaCl2, and 1 of NaCl; sterilized at pH of 7.0 and 121° C. for 15 min; sodium carbonate adopted as neutralizing agent.
In a 100 mL serum bottle, add 15 g/L of Na2HPO4, 4 g/L of KH2PO4, 13.1 mL of water, and 1 mL of Actinobacillus succinogenes NJ113 (CGMCC 1716) seed liquid after being washed by sterilized water; sterilize at 121° C. for 15 min, and then add 4 mL of reserved mixed liquid containing corresponding concentrations of amino acids, 0.5 mL of mixed liquid of vitamins including niacin and biotin so that […], 1 mL of reserved mixed liquid containing all metal salts being tested, and 0.4 mL of sterilized 500 g/L glucose solution, so that total volume after inoculation reaches 20 mL and glucose concentration is 10 g/L.
Fermentation experiment of above culture media containing different concentrations of biotin has been carried out under the same fermentation conditions as preferred embodiment 1:
According to identical germ seed, fermentation conditions, and experiment method of this preferred embodiment, biotin consumption in the culture medium is further lowered, to concentrations of 50 μg/L, 100 μg/L, 150 μg/L, 200 μg/L, and 300 μg/L respectively, for fermentation experiment: […]

[3] = 5-ALA 0.1~1 mg/L replacing biotin

In the case of `NCC(=O)CCC(=O)O` [5-ALA, 5-aminolevulinate], the Residual glucose [1, 3] is reported as 3.4 g/L, the Succinic acid [1, 3] is reported as 15.6 ± 0.2 g/L and the “output of succinic acid compared with biotin” value ([1]; biotin completely replaced by 5-ALA) is reported as “can realize the highest output of succinic acid that can be obtained using biotin”.
In the case of `O=C(O)c1cccnc1` [Niacin], the bacterial growth [2] is reported as “relatively poor”, the glucose remaining [2] is reported as “large amount of glucose remains” and the succinic acid production [2] is reported as “very low”. For the same compound, the OD660 [2] was 0.2, the Residual glucose [2] was 5.6 g/L and the Succinic acid [2] was 0.1 g/L.
For `N[C@@H](CCC(=O)O)C(=O)O` [Glutamic acid], the bacterial growth [2] was “relatively poor”, the glucose remaining [2] was “large amount of glucose remains” and the succinic acid production [2] was “very low”. It also gave an OD660 [2] of 0.4, a Residual glucose [2] of 8.1 g/L and a Succinic acid [2] of 0.5 g/L.
`CSCC[C@H](N)C(=O)O` [Methionine] was tested, and the bacterial growth [2] was “relatively poor”, the glucose remaining [2] was “large amount of glucose remains” and the succinic acid production [2] was “very low”. For the same compound, the OD660 [2] was 0.6, the Residual glucose [2] was 4.3 g/L and the Succinic acid [2] was 1.3 g/L.
For `O=C(O)CCCC[C@@H]1SC[C@@H]2NC(=O)N[C@@H]21` [Biotin, biotin], the Residual glucose (Escherichia coli; biotin 50 μg/L) was 23 g/L, the Succinic acid (Escherichia coli; biotin 50 μg/L) was 1.6 g/L and the Residual glucose (Escherichia coli; biotin 100 μg/L) was 2.2 g/L. For the same compound, the Succinic acid (Escherichia coli; biotin 100 μg/L) was 15.8 g/L, the Residual glucose (Escherichia coli; biotin 150 μg/L) was 2.6 g/L and the Succinic acid (Escherichia coli; biotin 150 μg/L) was 16.2 g/L. It also gave a Residual glucose (Escherichia coli; biotin 200 μg/L) of 2.5 g/L, a Succinic acid (Escherichia coli; biotin 200 μg/L) of 16.8 g/L and a Residual glucose (Escherichia coli; biotin 300 μg/L) of 2.8 g/L. It also gave a Succinic acid (Escherichia coli; biotin 300 μg/L) of 16.7 g/L, a Residual glucose (Escherichia coli; biotin 2 mg/L) of 0 g/L and a Succinic acid (Escherichia coli; biotin 2 mg/L) of 18.8 g/L. It also gave a Residual glucose (Escherichia coli; biotin 4 mg/L) of 0 g/L, a Succinic acid (Escherichia coli; biotin 4 mg/L) of 18.6 g/L and a Residual glucose (Escherichia coli; biotin 6 mg/L) of 0 g/L. For the same compound, the Succinic acid (Escherichia coli; biotin 6 mg/L) was 17.7 g/L, the Residual glucose (Escherichia coli; biotin 8 mg/L) was 0 g/L and the Succinic acid (Escherichia coli; biotin 8 mg/L) was 19.4 g/L. The Residual glucose (Escherichia coli; biotin 10 mg/L) was 0 g/L, the Succinic acid (Escherichia coli; biotin 10 mg/L) was 18.7 g/L and the Residual glucose (Escherichia coli; biotin 20 mg/L) was 0 g/L. The Succinic acid (Escherichia coli; biotin 20 mg/L) was 18.5 g/L, the bacterial growth [2] was “relatively poor” and the glucose remaining [2] was “large amount of glucose remains”. For the same compound, the succinic acid production [2] was “very low”, the OD660 [2] was 0.3 and the Residual glucose [2] was 6.9 g/L. It also gave a Succinic acid [2] of 0.7 g/L.
